Source: patent US11534506B2, “Methods for cell labeling and medical imaging” (priority 2015, dated 2022)
Entries after “also recorded” stand apart in the source; their conditions may differ. Read-outs that look alike come from different tables or passages of the source.

What was measured:
C6 glioma cells = details: cited from earlier work
5T33 myeloma cells = details: cited from earlier work
[1] = system: macrophages, breast cancer cells, and myeloma cells; details: at 24 hours; cited from earlier work
natural killer cells = details: cited from earlier work
[2] = system: myeloma cells and natural killer cells; details: cited from earlier work
lymphocytes = details: cited from earlier work
[3] = system: Leukocytes, Lymphocytes, HPCs; details: in 30 minutes; cited from earlier work
[4] = system: hematopoietic progenitor cells (HPCs); details: in 24-96 hours; cited from earlier work
mMCs, hMSCs and mDCs [5] = test: ApoTox-Glo viability/cytotoxicity and caspase 3/7 apoptosis assay; format: cell-based, mouse, human; details: 2 μM for 16 hours
Description: The effect of radiolabeling on cellular viability was also assessed using the ApoTox-Glo viability, cytotoxicity and caspase 3/7 apoptosis assay (Promega Corporation, Madison, Wis., USA). Unlabeled cells served as control. A known number of unlabeled and ^89Zr-labeled cells (˜10^4/well) were plated in a 96-well culture plate. The culture medium was replaced daily and maintained at 37° C. in a CO2 incubator. At day 7, cell viability, cytotoxicity and apoptosis was quantified in triplicate using the ApoTox-Glo assay. As positive controls, cells were incubated with 30 μg/mL digitonin for 30 minutes for the viability and cytotoxicity assays, while 2 μM staurosporine was added for 16 hours for the caspase 3/7 dependent apoptosis assay.

[6] = system: human mesenchymal stem cells (hMSCs); test: Labeling of cells with ^89Zr-DBN (cell-bound radioactivity); format: cell-based; details: 6×10^6 cells incubated 30 minutes with ~6 MBq
Description: (§1) B16-F10 Mouse melanoma cells (mMCs) from ATCC, Manassas, Va., USA, human mesenchymal stem cells (hMSCs) from patients and JAWSII mouse dendritic cells (mDCs) from ATCC, Manassas, Va., USA, were used for evaluating the ^89Zr-DBN based labeling method. The mMCs and hMSCs were cultured in complete DMEM (DMEM+10% FBS) and mDCs were cultured in complete alphaMEM (alpha MEM+4 mM L-glutamine+1 mM sodium pyruvate+5 ng/mL murine GM-CSF+20% FBS). The cultures were maintained in a humidified cell culture chamber (21% O2, 74% N2, 5% CO2) at 37° C.
(§2) The adherent cells were trypsinized and washed once with PBS and twice with HEPES buffered GIBCO Hanks Balanced Salt solution buffered (ThermoFisher, Atlanta, Ga., USA) (H-HBSS), pH 7.5. The cell labeling reaction was performed with ˜6×10^6 cells in 500 μl H-HBSS at pH 7.5. […]. After incubation, the cells were washed 4 times with appropriate volume of complete medium. The final labeling efficiency was calculated from the radioactivity bound to cells after all the washes.

[7] = system: B16-F10 Mouse melanoma cells (mMCs); test: as above; format: cell-based; details: 6×10^6 cells incubated 30 minutes with ~6 MBq
Description: as §1, §2

[8] = system: JAWSII mouse dendritic cells (mDCs); test: as above; format: cell-based; details: 6×10^6 cells incubated 30 minutes with ~6 MBq
Description: as §1, §2

scAAV1-Cre and AAV2-GFP = test: Labeling of adeno-associated viruses with ^89Zr-DBN; details: after 30 minutes of labeling
Description: Post-labeling, the ^89Zr-DBN-AAVs were purified from free label and reaction mixture using size exclusion PD-10 desalting columns. The eluted virus in fractions were quantified using protein assay and radioactivity elution pattern was recorded.

mMCs, hMSCs and mDCs [9] = test: Incorporation of ^89Zr-DBN in protein fraction (subcellular protein fractionation); format: cell-based, mouse, human; details: days 1, 4 and 7 after labeling; all cell types studied
Description: To understand the sub-cellular localization of the label, incorporation of ^89Zr-DBN into different protein fractions in mMCs, hMSCs and mDCs was evaluated using a subcellular protein fractionation kit (Piercenet Thermo Scientific) at day 1, 4 and 7 post-labeling. The cytosolic proteins, hydrophobic membrane proteins, nuclear proteins and cytoskeletal proteins were isolated and each protein fraction was counted for radioactivity using a 2480 Wizard^2 automatic gamma counter (Perkin Elmer, Waltham, Mass., USA).

mMCs, hMSCs and mDCs [10] = test: Efflux of ^89Zr-DBN from labeled cells; details: over 7 days post-labeling, medium replaced daily
Description: The medium was replaced with fresh medium daily for 7 days and radioactivity in the replaced medium was counted. For mDCs with mix of adherent and suspension cells, the plate was centrifuged at 1000 rpm for 10 minutes before replacing the medium to avoid loss of unattached ^89Zr-labeled cells.

mMCs, hMSCs and mDCs [11] = test: Labeling of cells with ^89Zr(HPO4)2 and ^89Zr-DBN, labeling efficiency over all cell types; format: cell-based, mouse, human
Description: The adherent cells were trypsinized and washed once with PBS and twice with HEPES buffered GIBCO Hanks Balanced Salt solution buffered (ThermoFisher, Atlanta, Ga., USA) (H-HBSS), pH 7.5. The cell labeling reaction was performed with ˜6×10^6 cells in 500 μl H-HBSS at pH 7.5. […] After incubation, the cells were washed 4 times with appropriate volume of complete medium. The final labeling efficiency was calculated from the radioactivity bound to cells after all the washes.

CNC(=S)NN=CC(C)=NNC(=S)NC.[64Cu] [^64Cu-PTSM, ^64Cu-pyruvaldehyde-bis(N4-methylthiosemicarbazone)]
extent of efflux (as high as) (C6 glioma cells; C6 glioma cells, in 24-96 hours): 70-80%
cell labeling yield (C6 glioma cells; in 5 hours): 70-85% cell labeling yield in
effluxed radioactivity (C6 glioma cells; in 24 hours): cells (~80% effluxed in 24

c1cnc2c([O][89Zr]([O]c3cccc4cccnc34)([O]c3cccc4cccnc34)[O]c3cccc4cccnc34)cccc2c1 [^89Zr-oxine]
viability of labeled cells (5T33 myeloma cells; in first 24 hours): 76.3±3.2%
viability of labeled cells, initial (5T33 myeloma cells; starting value before the decline): 93%
efflux [1]: 10-29%
viability of radiolabeled cells (natural killer cells; after 6 days): 20-30%
viability of radiolabeled cells (natural killer cells; over the first 24 hours): 60-100%
cell labeling yield ([2]; in 30 minutes): ~32% cell labeling yield in 30
cell viability after labeling ([2]; possibly due to oxine exposure): Loss of cell viability possibly

[In+3].[O-]c1cccc2cccnc12.[O-]c1cccc2cccnc12.[O-]c1cccc2cccnc12 [^111In-oxine]
extent of efflux (as high as) (lymphocytes; in 24-96 hours): 70-80%
effluxed radioactivity (lymphocytes; in 24 hours): (~70% effluxed in 24 hours)
cell labeling yield [3]: ~80% cell labeling yield in 30
extent of efflux (as high as) [4]: 70-80%

CN[C@@H]1C[C@H]2O[C@@](C)([C@@H]1OC)n1c3ccccc3c3c4c(c5c6ccccc6n2c5c31)C(=O)NC4 [staurosporine]
apoptosis (caspase 3/7), positive control (mMCs, hMSCs and mDCs [5]): apoptosis was increased

^89Zr-labeled p-isothiocyanato-benzyl-desferrioxamine [^89Zr-DBN]
Radioactivity concentration of labeled cells [6]: 0.47±0.10 MBq/10^6 cells
Radioactivity concentration of labeled cells [7]: 0.50±0.10 MBq/10^6 cells
Radioactivity concentration of labeled cells [8]: 0.39±0.20 MBq/10^6 cells
viral labeling yield (radioactivity concentration) (scAAV1-Cre and AAV2-GFP): ~20 mCi/10^14 viral particles
^89Zr-radioactivity incorporated in hydrophobic membrane protein fraction (mMCs, hMSCs and mDCs [9]): ~99%
efflux of ^89Zr-radioactivity from labeled cells (mMCs, hMSCs and mDCs [10]): negligible efflux; also recorded: no efflux of radiolabel was observed
Radioactivity concentrations of labeled cells achieved without a negative effect on cellular viability (mMCs, hMSCs and mDCs [11]): up to 0.5 MBq/1×10^6 cells
cell labeling efficiency (mMCs, hMSCs and mDCs [11]; 30 minutes labeling at 37° C., ~6×10^6 cells, ~6 MBq, cell-bound radioactivity after washes, depending on cell type): 30-50%
